Test results as given in ChEMBL document CHEMBL3885881, “DrugMatrix”.

Species: Rattus norvegicus
Assay: DrugMatrix - Regimen: Daily Repeat
Assay type: toxicity, organism-based, Sprague-Dawley
Parameters: regimen Daily Repeat, gender Male, age 6-8 weeks
Conditions: in vivo, po, route oral GAVAGE, […]; for ABSOLUTE BASOPHIL / ABSOLUTE EOSINOPHIL / ABSOLUTE LYMPHOCYTE / ABSOLUTE MONOCYTE / ABSOLUTE SEGMENTED NEUTROPHIL / BASOPHIL / EOSINOPHIL / ERYTHROCYTE COUNT / HEMATOCRIT / HEMOGLOBIN / LEUKOCYTE COUNT / LYMPHOCYTE / MEAN CORPUSCULAR HEMOGLOBIN / MEAN CORPUSCULAR HEMOGLOBIN CONCENTRATION / MEAN CORPUSCULAR VOLUME / MONOCYTE / NEUTROPHIL / NUCLEATED RED BLOOD CELLS / PLATELET COUNT: tissue Blood; for ALANINE AMINOTRANSFERASE / ALBUMIN / ALKALINE PHOSPHATASE / ASPARTATE AMINOTRANSFERASE / BLOOD UREA NITROGEN / CARBON DIOXIDE / CHLORIDE / CHOLESTEROL / CREATINE PHOSPHOKINASE / CREATININE / GLUCOSE / LACTATE DEHYDROGENASE / LIPASE / PHOSPHORUS / POTASSIUM / SODIUM / TOTAL BILIRUBIN / TOTAL PROTEIN / URIC ACID: tissue Plasma
[1] = 0 mg/kg, 72 h, dose level Control, time 3 day
[2] = 0 mg/kg, 120 h, dose level Control, time 5 day
[3] = 5 mg/kg, 72 h, dose level Low, time 3 day

With `O=C(Nc1ccc(Cl)c(Cl)c1)c1cc(Cl)cc(Cl)c1O` [3,3',4',5-TETRACHLOROSALICYLANILIDE] the “ABSOLUTE BASOPHIL” value [1] was 0 CELLS/uL, the “ABSOLUTE EOSINOPHIL” value [1] was 0 CELLS/uL and the “ABSOLUTE LYMPHOCYTE” value [1] was 11091.17 CELLS/uL. For the same compound, the “ABSOLUTE MONOCYTE” value [1] was 172.17 CELLS/uL, the “ABSOLUTE SEGMENTED NEUTROPHIL” value [1] was 1186.67 CELLS/uL and the BASOPHIL [1] was 0%. For the same compound, the EOSINOPHIL [1] was 0%, the “ERYTHROCYTE COUNT” value [1] was 5.87 x10E6/uL and the HEMATOCRIT [1] was 36.87%. The HEMOGLOBIN [1] was 14.03 G/DL, the “LEUKOCYTE COUNT” value [1] was 12.45 x10E3/uL and the LYMPHOCYTE [1] was 88.67%. For the same compound, the “MEAN CORPUSCULAR HEMOGLOBIN” value [1] was 23.93 pg, the “MEAN CORPUSCULAR HEMOGLOBIN CONCENTRATION” value [1] was 38.1 G/DL and the “MEAN CORPUSCULAR VOLUME” value [1] was 62.73 fL. The MONOCYTE [1] was 1.5%, the NEUTROPHIL [1] was 9.83% and the “NUCLEATED RED BLOOD CELLS” value [1] was 0 /100WBC. For the same compound, the “PLATELET COUNT” value [1] was 1150.33 x10E3/uL, the “ALANINE AMINOTRANSFERASE” value [1] was 67.17 u/L and the ALBUMIN [1] was 4.03 G/DL. For the same compound, the “ALKALINE PHOSPHATASE” value [1] was 462.5 u/L, the “ASPARTATE AMINOTRANSFERASE” value [1] was 88 u/L and the “BLOOD UREA NITROGEN” value [1] was 13.17 mg/dL. The “CARBON DIOXIDE” value [1] was 29.33 mmol/L, the CHLORIDE [1] was 101 MEQ/L and the CHOLESTEROL [1] was 69.17 mg/dL. For the same compound, the “CREATINE PHOSPHOKINASE” value [1] was 292.5 u/L, the CREATININE [1] was 0.17 mg/dL and the GLUCOSE [1] was 167.5 mg/dL. For the same compound, the “LACTATE DEHYDROGENASE” value [1] was 198.5 u/L, the LIPASE [1] was 10.67 u/L and the PHOSPHORUS [1] was 11.73 mg/dL. The POTASSIUM [1] was 5.91 MEQ/L, the SODIUM [1] was 143.3 MEQ/L and the “TOTAL BILIRUBIN” value [1] was 0.18 mg/dL. The “TOTAL PROTEIN” value [1] was 5.7 G/DL, the “URIC ACID” value [1] was 1.3 mg/dL and the “ABSOLUTE BASOPHIL” value [2] was 0 CELLS/uL. For the same compound, the “ABSOLUTE EOSINOPHIL” value [2] was 64.33 CELLS/uL, the “ABSOLUTE LYMPHOCYTE” value [2] was 12494.67 CELLS/uL and the “ABSOLUTE MONOCYTE” value [2] was 117 CELLS/uL. The “ABSOLUTE SEGMENTED NEUTROPHIL” value [2] was 1340.67 CELLS/uL, the BASOPHIL [2] was 0% and the EOSINOPHIL [2] was 0.33%. The “ERYTHROCYTE COUNT” value [2] was 5.82 x10E6/uL, the HEMATOCRIT [2] was 36.97% and the HEMOGLOBIN [2] was 14.18 G/DL. For the same compound, the “LEUKOCYTE COUNT” value [2] was 14.02 x10E3/uL, the LYMPHOCYTE [2] was 89% and the “MEAN CORPUSCULAR HEMOGLOBIN” value [2] was 24.42 pg. For the same compound, the “MEAN CORPUSCULAR HEMOGLOBIN CONCENTRATION” value [2] was 38.4 G/DL, the “MEAN CORPUSCULAR VOLUME” value [2] was 63.52 fL and the MONOCYTE [2] was 0.83%. For the same compound, the NEUTROPHIL [2] was 9.83%, the “NUCLEATED RED BLOOD CELLS” value [2] was 0 /100WBC and the “PLATELET COUNT” value [2] was 1097.83 x10E3/uL. The “ALANINE AMINOTRANSFERASE” value [2] was 58.83 u/L, the ALBUMIN [2] was 3.92 G/DL and the “ALKALINE PHOSPHATASE” value [2] was 414.17 u/L. For the same compound, the “ASPARTATE AMINOTRANSFERASE” value [2] was 89.17 u/L, the “BLOOD UREA NITROGEN” value [2] was 16.83 mg/dL and the “CARBON DIOXIDE” value [2] was 29.17 mmol/L. The CHLORIDE [2] was 100.33 MEQ/L, the CHOLESTEROL [2] was 54.5 mg/dL and the “CREATINE PHOSPHOKINASE” value [2] was 386.17 u/L. The CREATININE [2] was 0.23 mg/dL, the GLUCOSE [2] was 184.17 mg/dL and the “LACTATE DEHYDROGENASE” value [2] was 229.17 u/L. For the same compound, the LIPASE [2] was 10.83 u/L, the PHOSPHORUS [2] was 10.88 mg/dL and the POTASSIUM [2] was 5.97 MEQ/L. For the same compound, the SODIUM [2] was 142.2 MEQ/L, the “TOTAL BILIRUBIN” value [2] was 0.12 mg/dL and the “TOTAL PROTEIN” value [2] was 5.63 G/DL. For the same compound, the “URIC ACID” value [2] was 1.55 mg/dL, the “ABSOLUTE BASOPHIL” value [3] was 0 CELLS/uL and the “ABSOLUTE EOSINOPHIL” value [3] was 173.67 CELLS/uL. The “ABSOLUTE LYMPHOCYTE” value [3] was 11546 CELLS/uL, the “ABSOLUTE MONOCYTE” value [3] was 53.33 CELLS/uL and the “ABSOLUTE SEGMENTED NEUTROPHIL” value [3] was 1927 CELLS/uL. For the same compound, the BASOPHIL [3] was 0%, the EOSINOPHIL [3] was 1.33% and the “ERYTHROCYTE COUNT” value [3] was 5.84 x10E6/uL. The HEMATOCRIT [3] was 36.37%, the HEMOGLOBIN [3] was 14.03 G/DL and the “LEUKOCYTE COUNT” value [3] was 13.7 x10E3/uL. The LYMPHOCYTE [3] was 84%, the “MEAN CORPUSCULAR HEMOGLOBIN” value [3] was 24.03 pg and the “MEAN CORPUSCULAR HEMOGLOBIN CONCENTRATION” value [3] was 38.6 G/DL. The “MEAN CORPUSCULAR VOLUME” value [3] was 62.27 fL, the MONOCYTE [3] was 0.33% and the NEUTROPHIL [3] was 14.33%. The “NUCLEATED RED BLOOD CELLS” value [3] was 0 /100WBC, the “PLATELET COUNT” value [3] was 1088.67 x10E3/uL and the “ALANINE AMINOTRANSFERASE” value [3] was 64 u/L. The ALBUMIN [3] was 3.97 G/DL, the “ALKALINE PHOSPHATASE” value [3] was 434.67 u/L and the “ASPARTATE AMINOTRANSFERASE” value [3] was 108.33 u/L. The “BLOOD UREA NITROGEN” value [3] was 14 mg/dL, the “CARBON DIOXIDE” value [3] was 23 mmol/L and the CHLORIDE [3] was 102.33 MEQ/L. For the same compound, the CHOLESTEROL [3] was 66.33 mg/dL, the “CREATINE PHOSPHOKINASE” value [3] was 588 u/L and the CREATININE [3] was 0.19 mg/dL. For the same compound, the GLUCOSE [3] was 171.67 mg/dL, the “LACTATE DEHYDROGENASE” value [3] was 260 u/L and the LIPASE [3] was 9.67 u/L. The PHOSPHORUS [3] was 12.87 mg/dL, the POTASSIUM [3] was 6.31 MEQ/L and the SODIUM [3] was 141.93 MEQ/L. The “TOTAL BILIRUBIN” value [3] was 0.13 mg/dL, the “TOTAL PROTEIN” value [3] was 5.57 G/DL and the “URIC ACID” value [3] was 1.83 mg/dL.
